In general, IC50 refers to the concentration needed to halve the response being measured. High values mean weaker potency in that assay, low ones greater potency in that assay.

The assay concerns the target T1, 3-hydroxy-3-methylglutaryl-coenzyme A reductase (Homo sapiens, UniProt P04035).
T1 sequence (P04035 whole entry): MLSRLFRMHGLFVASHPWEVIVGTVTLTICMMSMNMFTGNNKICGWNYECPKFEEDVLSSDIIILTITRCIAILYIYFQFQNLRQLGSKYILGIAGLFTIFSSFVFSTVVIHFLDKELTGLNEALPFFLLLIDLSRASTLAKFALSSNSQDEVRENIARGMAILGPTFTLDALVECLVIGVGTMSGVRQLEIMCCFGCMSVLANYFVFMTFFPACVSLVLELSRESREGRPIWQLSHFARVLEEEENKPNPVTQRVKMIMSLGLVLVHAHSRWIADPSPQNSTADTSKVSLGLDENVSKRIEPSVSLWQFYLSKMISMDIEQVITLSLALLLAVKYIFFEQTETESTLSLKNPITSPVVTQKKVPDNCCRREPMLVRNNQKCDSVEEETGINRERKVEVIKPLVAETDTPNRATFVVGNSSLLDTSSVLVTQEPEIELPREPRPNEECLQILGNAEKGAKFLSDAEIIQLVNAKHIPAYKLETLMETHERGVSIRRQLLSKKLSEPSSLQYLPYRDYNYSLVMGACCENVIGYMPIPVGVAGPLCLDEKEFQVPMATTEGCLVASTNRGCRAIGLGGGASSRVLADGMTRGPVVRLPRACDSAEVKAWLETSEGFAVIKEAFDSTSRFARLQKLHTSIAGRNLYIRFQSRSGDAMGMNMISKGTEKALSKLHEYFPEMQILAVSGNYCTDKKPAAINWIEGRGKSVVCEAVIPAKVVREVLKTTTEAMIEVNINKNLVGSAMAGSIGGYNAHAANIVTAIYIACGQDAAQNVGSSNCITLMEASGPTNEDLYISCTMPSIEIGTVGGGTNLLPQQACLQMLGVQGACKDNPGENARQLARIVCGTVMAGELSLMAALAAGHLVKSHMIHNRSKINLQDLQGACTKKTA
The experiment in a line: Inhibition of HMG CoA reductase.

As for `CCCCCC[C@@H]1C[C@@H]1CCCCCCCCCC(=O)OCC(O)COP(=O)([O-])OCC[N+](C)(C)C` (relative stereo) [LYSOPHOSPHATIDYLCHOLINE], the midpoint of inhibition, the IC50, lay at 112 µM.

The record behind these values is ChEMBL document CHEMBL1150228, “Synthesis of a novel lysophosphatidylcholine” (J Nat Prod, 2001).
